System: histamine induced blood glucose rise
Test: Histamine induced hyperglycemia in mice
Type: in vivo
Settings: 1.0 mg/kg ip, 30 min before histamine chloride (90 nmol icv); blood glucose at 0 and 40 min; male NMRI mice
Procedure: Conscious unfasted 25 g male NMRI mice are administered histamine chloride (90 nmol) icv according to the method of Nishibori et al. (J. Pharmacol. Exp. Therap. 241, […], 1987). Blood glucose is determined at time 0 and 40 min after the histamine injection. Test compounds are administered at 1.0 mg/kg ip 30 min before the histamine injection, and % inhibition refers to the capacity of the compounds to inhibit the histamine induced blood glucose rise.

O=C(O)CCN1CCN2c3ccccc3Sc3ccccc3C2C1 (stereo not shown) [Example 4, 3-(1,3,4,14b-Tetrahydro-2H-dibenzo[b,f]pyrazino[1,2-d][1,4]thiazepin-2-yl)-propionic acid]
% inhibition of histamine induced hyperglycemia: 48%

From patent US6187770A, “N-substituted azaheterocyclic compounds” (Novo Nordisk A/S, priority 1998, dated 2001)
